Reference: the supplement of paper PMC13380429
Where a name gives a salt, the structure may show the parent alone.

Experiments:
Conditions in all cases: 72 h
[1] = system: Caco-2; assay: cell viability relative to DMSO; higher = less toxic
[2] = system: Calu-3; assay: as above
[3] = system: HepG2; assay: as above
[4] = system: U2OS; assay: as above
[5] = system: Vero E6; assay: as above
[6] = system: Caco-2; assay: relative viability EC50 (midpoint between 100% and the lowest measured viability); higher = less toxic
[7] = system: Calu-3; assay: as above
[8] = system: HepG2; assay: as above
[9] = system: U2OS; assay: as above
[10] = system: Vero E6; assay: as above
[11] = system: Caco-2; assay: drug sensitivity score (DSS) for viability; higher = more toxic; extreme values may be limits of the assay
[12] = system: Calu-3; assay: as above
[13] = system: HepG2; assay: as above
[14] = system: U2OS; assay: as above
[15] = system: Vero E6; assay: as above

Compound | cell viability ([1]; 1 nM) [%] | cell viability ([1]; 10 nM) [%] | cell viability ([1]; 100 nM) [%] | cell viability ([1]; 1000 nM) [%] | cell viability ([1]; 10000 nM) [%] | cell viability ([2]; 1 nM) [%] | cell viability ([2]; 10 nM) [%] | cell viability ([2]; 100 nM) [%] | cell viability ([2]; 1000 nM) [%] | cell viability ([2]; 10000 nM) [%] | cell viability ([3]; 1 nM) [%] | cell viability ([3]; 10 nM) [%] | cell viability ([3]; 100 nM) [%] | cell viability ([3]; 1000 nM) [%] | cell viability ([3]; 10000 nM) [%] | cell viability ([4]; 1 nM) [%] | cell viability ([4]; 10 nM) [%] | cell viability ([4]; 100 nM) [%] | cell viability ([4]; 1000 nM) [%] | cell viability ([4]; 10000 nM) [%] | cell viability ([5]; 1 nM) [%] | cell viability ([5]; 10 nM) [%] | cell viability ([5]; 100 nM) [%] | cell viability ([5]; 1000 nM) [%] | cell viability ([5]; 10000 nM) [%] | relative viability EC50 [6] [µM] | relative viability EC50 [7] [µM] | relative viability EC50 [8] [µM] | relative viability EC50 [9] [µM] | relative viability EC50 [10] [µM] | drug sensitivity score [11] | drug sensitivity score [12] | drug sensitivity score [13] | drug sensitivity score [14] | drug sensitivity score [15]
Cn1c(=O)c2c(ncn2CC(=O)Nc2ccc(-c3ccccc3)nn2)n(C)c1=O [ETC-159] | 91.7 | 91.3 | 98.3 | 93.5 | 79.9 | 98.1 | 94 | 103 | 113 | 110 | 94 | 89.4 | 106 | 87.4 | 79.2 | 95.1 | 96.7 | 93.4 | 99.2 | 98.5 | 97.1 | 97.8 | 93.7 | 89.4 | 94.7 | > 10 | > 10 | > 10 | > 10 | > 10 | 0.5 | 0 | 1.9 | 0 | 0
O=C(N[C@H]1CN2CCC1CC2)c1cc2cccc(Cl)c2s1 [EVP-6124] | 94.6 | 97.5 | 98.2 | 101 | 92.9 | 87.9 | 92 | 89.1 | 98.5 | 85.1 | 90.6 | 95 | 106 | 92.7 | 94.7 | 104 | 100 | 95 | 103 | 95.2 | 95.6 | 92.2 | 97.8 | 96 | 92.9 | > 10 | > 10 | > 10 | > 10 | > 10 | 0 | 0 | 0 | 0 | 0
O=C(O)CCc1ccc(NCc2cccc(Oc3ccccc3)c2)cc1 [GW-9508] | 95.4 | 98.4 | 102 | 112 | 106 | 90.9 | 100 | 107 | 106 | 104 | 97.1 | 101 | 96.9 | 99.8 | 96 | 91.9 | 97 | 98.6 | 102 | 97.6 | 94.1 | 96.1 | 97.8 | 95.2 | 101 | > 10 | > 10 | > 10 | > 10 | > 10 | 0 | 0 | 0 | 0 | 0
C[C@@H]1C(=O)O[C@H]2C[C@@]34[C@H]5C[C@@H](C(C)(C)C)[C@]36[C@@H](OC(=O)[C@@H]6O)O[C@@]4(C(=O)O5)[C@]21O [Ginkgolide A] | 101 | 97.3 | 98.2 | 93.4 | 95.6 | 104 | 103 | 96.4 | 106 | 105 | 101 | 88.5 | 100 | 92.6 | 94.3 | 105 | 98.4 | 102 | 100 | 104 | 104 | 95.1 | 98.9 | 97 | 103 | > 10 | > 10 | > 10 | > 10 | > 10 | 0 | 0 | 0 | 0 | 0
C[C@H](CCC(=O)O)[C@H]1CC[C@H]2[C@@H]3C[C@H](O)[C@@H]4C[C@H](O)CC[C@]4(C)[C@H]3CC[C@]12C [Hyodeoxycholic acid (HDCA)] | 88.5 | 100 | 99.3 | 101 | 106 | 108 | 103 | 87.8 | 107 | 101 | 95.6 | 102 | 104 | 93.9 | 106 | 95.8 | 103 | 105 | 104 | 104 | 92.3 | 95.4 | 95.2 | 94.3 | 108 | > 10 | > 10 | > 10 | > 10 | > 10 | 0 | 0 | 0 | 0 | 0
CNC(=O)c1ccc(-c2cnc3ncc(Cc4ccc5ncccc5c4)n3n2)cc1F [INC-280] | 97.9 | 90.7 | 96.6 | 104 | 88.4 | 101 | 103 | 99.9 | 101 | 110 | 89.2 | 100 | 88.8 | 111 | 82.6 | 107 | 95.7 | 99.6 | 98.1 | 102 | 95.7 | 98.4 | 91.5 | 96.1 | 83 | > 10 | > 10 | > 10 | > 10 | > 10 | 0 | 0 | 0.2 | 0 | 0.3
Cc1cc(C)cc(C(=O)N(C)[C@H](Cc2ccc(-c3ccccc3)cc2)C(=O)N[C@@H](Cc2c[nH]c3ccccc23)C(=O)O)c1 [IRL-2500] | 94 | 96.8 | 96.7 | 97.4 | 101 | 103 | 90.3 | 107 | 92.8 | 96.9 | 92.5 | 106 | 99.4 | 116 | 118 | 96.4 | 95.5 | 101 | 98.5 | 102 | 94.3 | 96.1 | 90.1 | 95.5 | 111 | > 10 | > 10 | > 10 | > 10 | > 10 | 0 | 0 | 0 | 0 | 0
O=C(NC1CC1)c1cc(-c2cccs2)on1 [ISX-9] | 98.1 | 98.3 | 93.3 | 101 | 87.6 | 93.6 | 105 | 104 | 99.7 | 84.3 | 104 | 95.8 | 102 | 103 | 87.6 | 97.7 | 98.4 | 98.4 | 102 | 85.5 | 111 | 96.5 | 108 | 99.4 | 101 | > 10 | > 10 | > 10 | > 10 | > 10 | 0.1 | 0.3 | 0 | 0.1 | 0
COc1ccc2cc(-c3cc(-c4cc(Cl)cc(Cl)c4)nn3[C@@H](C)c3ccc(C(=O)NCCC(=O)O)cc3)ccc2c1 [MK-0893] | 87.9 | 93.7 | 95.8 | 90.1 | 87.6 | 110 | 94.7 | 97.7 | 96.2 | 91.3 | 88.5 | 106 | 86.8 | 93.8 | 90 | 95.8 | 98.2 | 93.9 | 96.8 | 89.6 | 97.7 | 102 | 98.8 | 92.3 | 84.5 | > 10 | > 10 | > 10 | > 10 | > 10 | 0 | 0 | 0 | 0 | 0.6
Cc1cc(C(N)=O)ccc1-n1c(CCC(=O)O)ccc1-c1ccc(-n2ccnc2)cc1 [N6022] | 91.8 | 99.5 | 100 | 104 | 100 | 99.1 | 98.5 | 93.9 | 95.5 | 101 | 104 | 89.6 | 111 | 107 | 104 | 96.7 | 103 | 97.7 | 101 | 97.2 | 99.3 | 96.5 | 94.8 | 94 | 106 | > 10 | > 10 | > 10 | > 10 | > 10 | 0 | 0 | 0 | 0 | 0
CN(C(=O)Cc1ccccc1)[C@H](CN1CCCC1)c1ccccc1 [N-MPPP] | 111 | 94.8 | 102 | 97.4 | 95.9 | 103 | 96.2 | 91.6 | 106 | 93.4 | 93.5 | 93.6 | 97.8 | 100 | 98 | 95 | 95.8 | 101 | 102 | 99.1 | 105 | 104 | 102 | 106 | 99.5 | > 10 | > 10 | > 10 | > 10 | > 10 | 0 | 0 | 0 | 0 | 0
CC(=O)N[C@@H](C=O)[C@@H](O)[C@H](O)[C@H](O)CO [N-acetyl-D-glucosamine] | 93.3 | 97.6 | 113 | 102 | 107 | 103 | 111 | 101 | 93 | 95.9 | 91 | 85.7 | 94 | 94.7 | 87.3 | 102 | 99.7 | 102 | 97.3 | 102 | 100 | 110 | 104 | 106 | 87.5 | > 10 | > 10 | > 10 | > 10 | > 10 | 0 | 0 | 0 | 0 | 0
CNCCc1cnc[nH]1 [N-alpha-methylhistamine-dihydrochloride] | 94.5 | 104 | 92.5 | 98.2 | 102 | 101 | 97.2 | 91.5 | 109 | 94.5 | 104 | 95.9 | 103 | 87.7 | 112 | 97.4 | 105 | 101 | 102 | 98 | 99.4 | 91.6 | 96.7 | 91.5 | 97.1 | > 10 | > 10 | > 10 | > 10 | > 10 | 0 | 0 | 0 | 0 | 0
